# Species on record: Rattus norvegicus
# Test: Open TG-GATES - Regimen: Single
# Assay type: toxicity, organism-based, Sprague-Dawley
# Set-up: regimen Single, gender Male, age 6 weeks
# Settings: in vivo, ip, 0.1 mg/kg, route intraperitoneal injection, dose 100 ug/Kg, dose level Middle; for APTT / Bas / Eos / Fbg / Hb / Ht / Lym / MCH / MCHC / MCV / Mono / Neu / PT / Plat / RBC / Ret / WBC: tissue Blood; for KIDNEY_L / KIDNEY_R / KIDNEY_TOTAL: tissue Kidney; for LIVER: tissue Liver; for A/G / ALP / ALT / AST / BUN / CRE / Ca / Cl / DBIL / GLC / IP / K / LDH / Na / PL / RALB / TBIL / TC / TG / TP / gamma-GTP: tissue Plasma
smiles,measurement,setting,value
CC(=O)N[C@H]1[C@@H](O[C@@H]2O[C@H](CC(O)[C@H]3O[C@@H](n4ccc(=O)[nH]c4=O)[C@H](O)[C@@H]3O)[C@H](O)[C@H](O)[C@H]2NC(=O)/C=C/CC(C)C)O[C@H](CO)[C@@H](N)[C@@H]1O (some centres not stated) [TUNICAMYCIN],TERMINAL_BW,3 h,221.2 g
same,APTT,3 h,23.1 s
same,Bas,3 h,0%
same,Eos,3 h,0.6%
same,Fbg,3 h,292.6 mg/dL
same,Hb,3 h,12.8 g/dL
same,Ht,3 h,39.3%
same,Lym,3 h,71.2%
same,MCH,3 h,20.2 pg
same,MCHC,3 h,32.6%
same,MCV,3 h,62 fL
same,Mono,3 h,3.2%
same,Neu,3 h,24.2%
same,PT,3 h,15.9 s
same,Plat,3 h,122.6 x10_4/uL
same,RBC,3 h,636.4 x10_4/ul
same,Ret,3 h,8.1%
same,WBC,3 h,97.2 x10_2/uL
same,KIDNEY_L,3 h,0.9 g
same,KIDNEY_R,3 h,0.9 g
same,KIDNEY_TOTAL,3 h,1.9 g
same,LIVER,3 h,10.4 g
same,A/G,3 h,1.2
same,ALP,3 h,1559 IU/L
same,ALT,3 h,38.8 IU/L
same,AST,3 h,76.8 IU/L
same,BUN,3 h,13 mg/dL
same,CRE,3 h,0.2 mg/dL
same,Ca,3 h,10.6 mg/dL
same,Cl,3 h,106.8 meq/L
same,DBIL,3 h,0 mg/dL
same,GLC,3 h,167.2 mg/dL
same,IP,3 h,8.2 mg/dL
same,K,3 h,4.2 meq/L
same,LDH,3 h,158.2 IU/L
same,Na,3 h,142.8 meq/L
same,PL,3 h,122.8 mg/dL
same,RALB,3 h,2.9 g/dL
same,TBIL,3 h,0.012 mg/dL
same,TC,3 h,70.4 mg/dL
same,TG,3 h,70.2 mg/dL
same,TP,3 h,5.3 g/dL
same,gamma-GTP,3 h,1.4 IU/L
same,TERMINAL_BW,6 h,216.8 g
same,APTT,6 h,22.4 s
same,Bas,6 h,0%
same,Eos,6 h,0.4%
same,Fbg,6 h,315.6 mg/dL
same,Hb,6 h,13.2 g/dL
same,Ht,6 h,40.1%
same,Lym,6 h,67%
same,MCH,6 h,21 pg
same,MCHC,6 h,33%
same,MCV,6 h,63.7 fL
same,Mono,6 h,2%
same,Neu,6 h,30%
same,PT,6 h,15.7 s
same,Plat,6 h,110 x10_4/uL
same,RBC,6 h,630.4 x10_4/ul
same,Ret,6 h,7.9%
same,WBC,6 h,95.8 x10_2/uL
same,KIDNEY_L,6 h,1 g
same,KIDNEY_R,6 h,1 g
same,KIDNEY_TOTAL,6 h,1.9 g
same,LIVER,6 h,9.2 g
same,A/G,6 h,1.2
same,ALP,6 h,1277.4 IU/L
same,ALT,6 h,39.8 IU/L
same,AST,6 h,70.4 IU/L
same,BUN,6 h,11 mg/dL
same,CRE,6 h,0.2 mg/dL
same,Ca,6 h,10.8 mg/dL
same,Cl,6 h,106.2 meq/L
same,DBIL,6 h,0 mg/dL
same,GLC,6 h,175 mg/dL
same,IP,6 h,9.3 mg/dL
same,K,6 h,4.2 meq/L
same,LDH,6 h,161.6 IU/L
same,Na,6 h,141.4 meq/L
same,PL,6 h,127.2 mg/dL
same,RALB,6 h,3 g/dL
same,TBIL,6 h,0.022 mg/dL
same,TC,6 h,74 mg/dL
same,TG,6 h,51.8 mg/dL
same,TP,6 h,5.3 g/dL
same,gamma-GTP,6 h,1.2 IU/L
same,TERMINAL_BW,9 h,221.7 g
same,APTT,9 h,23.2 s
same,Bas,9 h,0%
same,Eos,9 h,1%
same,Fbg,9 h,305.8 mg/dL
same,Hb,9 h,12.9 g/dL
same,Ht,9 h,39.8%
same,Lym,9 h,81%
same,MCH,9 h,20.7 pg
same,MCHC,9 h,32.4%
same,MCV,9 h,64 fL
same,Mono,9 h,2.2%
same,Neu,9 h,15.4%
same,PT,9 h,15.8 s
same,Plat,9 h,123.1 x10_4/uL
same,RBC,9 h,623 x10_4/ul
same,Ret,9 h,7.8%
same,WBC,9 h,86.6 x10_2/uL
same,KIDNEY_L,9 h,0.9 g
same,KIDNEY_R,9 h,1 g
same,KIDNEY_TOTAL,9 h,1.9 g
same,LIVER,9 h,9.2 g
same,A/G,9 h,1.2
same,ALP,9 h,1517.2 IU/L
same,ALT,9 h,35.6 IU/L
same,AST,9 h,71 IU/L
same,BUN,9 h,12.4 mg/dL
same,CRE,9 h,0.1 mg/dL
same,Ca,9 h,10.9 mg/dL
same,Cl,9 h,106.2 meq/L
same,DBIL,9 h,0 mg/dL
same,GLC,9 h,173.6 mg/dL
same,IP,9 h,9.2 mg/dL
same,K,9 h,4.2 meq/L
same,LDH,9 h,137.4 IU/L
same,Na,9 h,141.8 meq/L
same,PL,9 h,124.8 mg/dL
same,RALB,9 h,2.9 g/dL
same,TBIL,9 h,0.014 mg/dL
same,TC,9 h,70.2 mg/dL
same,TG,9 h,76 mg/dL
same,TP,9 h,5.3 g/dL
same,gamma-GTP,9 h,1 IU/L
same,TERMINAL_BW,24 h,228.5 g
same,APTT,24 h,22.4 s
same,Bas,24 h,0%
same,Eos,24 h,0.8%
same,Fbg,24 h,332.8 mg/dL
same,Hb,24 h,13.3 g/dL
same,Ht,24 h,41.4%
same,Lym,24 h,80.6%
same,MCH,24 h,19.9 pg
same,MCHC,24 h,32%
same,MCV,24 h,62 fL
same,Mono,24 h,2.6%
same,Neu,24 h,15.2%
same,PT,24 h,15.8 s
same,Plat,24 h,105.4 x10_4/uL
same,RBC,24 h,668 x10_4/ul
same,Ret,24 h,7.2%
same,WBC,24 h,84.3 x10_2/uL
same,KIDNEY_L,24 h,0.9 g
same,KIDNEY_R,24 h,1 g
same,KIDNEY_TOTAL,24 h,1.9 g
same,LIVER,24 h,10.2 g
same,A/G,24 h,1.2
same,ALP,24 h,1529.6 IU/L
same,ALT,24 h,46.2 IU/L
same,AST,24 h,74.2 IU/L
same,BUN,24 h,15.2 mg/dL
same,CRE,24 h,0.1 mg/dL
same,Ca,24 h,10.5 mg/dL
same,Cl,24 h,105.4 meq/L
same,DBIL,24 h,0 mg/dL
same,GLC,24 h,181 mg/dL
same,IP,24 h,7.3 mg/dL
same,K,24 h,4.2 meq/L
same,LDH,24 h,152.8 IU/L
same,Na,24 h,142 meq/L
same,PL,24 h,143.8 mg/dL
same,RALB,24 h,3.1 g/dL
same,TBIL,24 h,0.014 mg/dL
same,TC,24 h,77.6 mg/dL
same,TG,24 h,78.2 mg/dL
same,TP,24 h,5.6 g/dL
same,gamma-GTP,24 h,1.4 IU/L
